ChEMBL document CHEMBL4038320 (J Med Chem, 2017)

Legend:
[1] = target: T1, G protein-coupled receptor kinase 3 (Homo sapiens, UniProt P35626); experiment: Inhibition of recombinant human full length GST-tagged GRK3 expressed in baculovirus using ulight topo2alpha as substrate preincubated for 60 mins followed by substrate addition measured after 10 mins by Lance TR-FRET assay
T1 sequence (P35626 whole entry): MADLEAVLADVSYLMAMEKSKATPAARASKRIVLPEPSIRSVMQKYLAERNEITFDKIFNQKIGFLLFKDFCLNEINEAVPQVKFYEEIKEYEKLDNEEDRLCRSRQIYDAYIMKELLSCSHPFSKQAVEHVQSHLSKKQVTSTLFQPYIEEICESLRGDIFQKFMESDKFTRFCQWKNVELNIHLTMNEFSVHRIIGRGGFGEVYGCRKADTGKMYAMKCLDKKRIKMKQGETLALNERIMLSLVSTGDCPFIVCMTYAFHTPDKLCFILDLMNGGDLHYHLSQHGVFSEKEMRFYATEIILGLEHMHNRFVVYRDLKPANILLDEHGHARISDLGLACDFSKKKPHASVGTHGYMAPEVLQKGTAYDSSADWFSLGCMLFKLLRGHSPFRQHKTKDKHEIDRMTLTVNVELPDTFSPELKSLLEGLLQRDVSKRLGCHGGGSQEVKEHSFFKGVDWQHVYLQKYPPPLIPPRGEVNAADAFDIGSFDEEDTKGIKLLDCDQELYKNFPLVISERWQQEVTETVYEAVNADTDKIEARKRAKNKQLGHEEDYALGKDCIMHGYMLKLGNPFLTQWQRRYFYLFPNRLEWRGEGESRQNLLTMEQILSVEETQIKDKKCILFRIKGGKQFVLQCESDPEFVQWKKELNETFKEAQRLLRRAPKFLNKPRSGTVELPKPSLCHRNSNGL

[2] = target: Rho-associated protein kinase 2 (Homo sapiens, UniProt O75116); experiment: Inhibition of recombinant human N-terminal GST-tagged ROCK2 catalytic domain (1 to 553 residues) expressed in baculovirus expression system using STK 2-biotin as substrate measured after 60 mins by HTRF/TR-FRET assay
CYP3A4 = CYP3A4 (Homo sapiens, UniProt P08684); experiment: Inhibition of CYP3A4 (unknown origin) at 10 uM; format: ADME
[3] = target: Protein kinase C alpha type (Homo sapiens, UniProt P17252); experiment: Inhibition of human PKCalpha active using MBP as substrate after 60 mins in presence of [gamma-32]ATP by scintillation counting
Rhodopsin kinase GRK7 = target: T2, Rhodopsin kinase GRK7 (Homo sapiens, UniProt Q8WTQ7); experiment: Inhibition of recombinant human full length GST-tagged GRK7 expressed in baculovirus using ulight topo2alpha as substrate preincubated for 60 mins followed by substrate addition measured after 10 mins by Lance TR-FRET assay
T2 sequence (Q8WTQ7 whole entry): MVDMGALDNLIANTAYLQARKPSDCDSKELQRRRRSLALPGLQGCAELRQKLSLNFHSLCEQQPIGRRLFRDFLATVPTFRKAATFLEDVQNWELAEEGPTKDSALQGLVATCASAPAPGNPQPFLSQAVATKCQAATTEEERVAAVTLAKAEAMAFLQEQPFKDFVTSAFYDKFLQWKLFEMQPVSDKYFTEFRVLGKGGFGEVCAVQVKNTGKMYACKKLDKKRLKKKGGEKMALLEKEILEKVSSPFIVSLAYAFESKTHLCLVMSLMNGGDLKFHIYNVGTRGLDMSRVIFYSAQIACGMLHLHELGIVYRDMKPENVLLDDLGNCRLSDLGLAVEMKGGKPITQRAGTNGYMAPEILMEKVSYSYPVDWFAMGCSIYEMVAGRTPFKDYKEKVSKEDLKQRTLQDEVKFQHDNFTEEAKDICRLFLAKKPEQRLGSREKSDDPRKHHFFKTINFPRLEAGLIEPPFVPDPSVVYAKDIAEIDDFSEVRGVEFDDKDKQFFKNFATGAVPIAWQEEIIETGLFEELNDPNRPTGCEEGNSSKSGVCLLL

Rhodopsin kinase GRK1 = target: T3, Rhodopsin kinase GRK1 (Homo sapiens, UniProt Q15835); experiment: Inhibition of recombinant human GST-tagged GRK1 expressed in baculovirus infected fall armyworm Sf9 cells after 60 mins by LanthaScreen eu kinase binding assay
T3 sequence (Q15835 whole entry): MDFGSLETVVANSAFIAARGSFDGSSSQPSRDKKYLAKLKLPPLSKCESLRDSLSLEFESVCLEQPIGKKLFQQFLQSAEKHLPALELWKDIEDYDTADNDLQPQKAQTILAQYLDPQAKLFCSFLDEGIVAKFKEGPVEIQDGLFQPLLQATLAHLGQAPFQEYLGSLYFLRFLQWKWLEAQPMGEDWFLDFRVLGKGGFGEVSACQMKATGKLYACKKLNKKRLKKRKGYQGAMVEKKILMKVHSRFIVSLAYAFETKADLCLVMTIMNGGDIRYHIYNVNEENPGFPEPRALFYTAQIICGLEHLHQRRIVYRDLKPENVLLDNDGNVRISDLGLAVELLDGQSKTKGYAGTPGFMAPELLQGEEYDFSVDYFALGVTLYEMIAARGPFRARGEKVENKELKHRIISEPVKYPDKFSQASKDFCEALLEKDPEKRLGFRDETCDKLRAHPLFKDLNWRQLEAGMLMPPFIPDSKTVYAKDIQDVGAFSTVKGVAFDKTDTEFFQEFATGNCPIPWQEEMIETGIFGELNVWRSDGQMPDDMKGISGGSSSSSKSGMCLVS

[4] = target: G protein-coupled receptor kinase 5 (Homo sapiens, UniProt P34947)
Description: Inhibition of recombinant human full length GST-tagged GRK5 expressed in baculovirus using ulight topo2alpha as substrate preincubated for 60 mins followed by substrate addition measured after 10 mins by Lance TR-FRET assay

[5] = target: G protein-coupled receptor kinase 6 (Homo sapiens, UniProt P43250); experiment: Inhibition of recombinant human full length GST-tagged GRK6 expressed in baculovirus using ulight topo2alpha as substrate preincubated for 60 mins followed by substrate addition measured after 10 mins by Lance TR-FRET assay
hERG (KCNH2) [6] = target: T4, hERG (KCNH2) (Homo sapiens, UniProt Q12809); experiment: Displacement of [3H]Astemizole from human ERG expressed in HEK293 cell membranes at 1 uM after 60 mins; settings: membranes of HEK293 cells that express hERG, probe [3H]Astemizole
hERG (KCNH2) [7] = target: T4, hERG (KCNH2); experiment: Displacement of [3H]Astemizole from human ERG expressed in HEK293 cell membranes at 10 uM after 60 mins; settings: membranes of HEK293 cells that express hERG, probe [3H]Astemizole
[8] = Inhibition of recombinant human PKA expressed in Escherichia coli using LRRASLG as substrate preincubated for 15 mins followed by substrate addition measured after 15 mins in presence of [gamma-33P]-ATP by scintillation counting
[9] = target: T5, Beta-adrenergic receptor kinase 1 (Homo sapiens, UniProt P25098); experiment: Inhibition of human GRK2 expressed in HEK-B2 cells assessed as isoproterenol-stimulated cAMP accumulation preincubation for 20 mins followed by isoproterenol stimulation measured after 20 mins by cAMP ALPHA-screen assay; format: cell-based
T5 sequence (P25098 whole entry): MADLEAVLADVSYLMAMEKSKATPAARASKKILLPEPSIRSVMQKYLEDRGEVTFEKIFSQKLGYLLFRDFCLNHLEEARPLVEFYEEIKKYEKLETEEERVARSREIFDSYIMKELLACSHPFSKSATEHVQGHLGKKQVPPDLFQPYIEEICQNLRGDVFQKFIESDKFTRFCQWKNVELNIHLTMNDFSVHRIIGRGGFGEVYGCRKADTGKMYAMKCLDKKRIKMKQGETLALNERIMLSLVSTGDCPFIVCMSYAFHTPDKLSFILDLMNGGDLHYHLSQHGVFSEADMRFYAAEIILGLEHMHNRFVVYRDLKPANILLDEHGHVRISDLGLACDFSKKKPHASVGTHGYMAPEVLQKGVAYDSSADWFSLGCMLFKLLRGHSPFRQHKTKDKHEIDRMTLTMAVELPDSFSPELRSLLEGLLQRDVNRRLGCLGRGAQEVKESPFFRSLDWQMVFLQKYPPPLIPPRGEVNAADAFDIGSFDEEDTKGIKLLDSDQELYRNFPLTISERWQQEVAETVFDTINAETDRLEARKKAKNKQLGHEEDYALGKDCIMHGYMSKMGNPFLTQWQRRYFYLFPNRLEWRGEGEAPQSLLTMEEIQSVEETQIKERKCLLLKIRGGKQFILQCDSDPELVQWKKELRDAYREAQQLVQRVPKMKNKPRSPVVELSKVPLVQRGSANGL

Sequence of Rho-associated protein kinase 2 (O75116 whole entry, the tested form may be a part): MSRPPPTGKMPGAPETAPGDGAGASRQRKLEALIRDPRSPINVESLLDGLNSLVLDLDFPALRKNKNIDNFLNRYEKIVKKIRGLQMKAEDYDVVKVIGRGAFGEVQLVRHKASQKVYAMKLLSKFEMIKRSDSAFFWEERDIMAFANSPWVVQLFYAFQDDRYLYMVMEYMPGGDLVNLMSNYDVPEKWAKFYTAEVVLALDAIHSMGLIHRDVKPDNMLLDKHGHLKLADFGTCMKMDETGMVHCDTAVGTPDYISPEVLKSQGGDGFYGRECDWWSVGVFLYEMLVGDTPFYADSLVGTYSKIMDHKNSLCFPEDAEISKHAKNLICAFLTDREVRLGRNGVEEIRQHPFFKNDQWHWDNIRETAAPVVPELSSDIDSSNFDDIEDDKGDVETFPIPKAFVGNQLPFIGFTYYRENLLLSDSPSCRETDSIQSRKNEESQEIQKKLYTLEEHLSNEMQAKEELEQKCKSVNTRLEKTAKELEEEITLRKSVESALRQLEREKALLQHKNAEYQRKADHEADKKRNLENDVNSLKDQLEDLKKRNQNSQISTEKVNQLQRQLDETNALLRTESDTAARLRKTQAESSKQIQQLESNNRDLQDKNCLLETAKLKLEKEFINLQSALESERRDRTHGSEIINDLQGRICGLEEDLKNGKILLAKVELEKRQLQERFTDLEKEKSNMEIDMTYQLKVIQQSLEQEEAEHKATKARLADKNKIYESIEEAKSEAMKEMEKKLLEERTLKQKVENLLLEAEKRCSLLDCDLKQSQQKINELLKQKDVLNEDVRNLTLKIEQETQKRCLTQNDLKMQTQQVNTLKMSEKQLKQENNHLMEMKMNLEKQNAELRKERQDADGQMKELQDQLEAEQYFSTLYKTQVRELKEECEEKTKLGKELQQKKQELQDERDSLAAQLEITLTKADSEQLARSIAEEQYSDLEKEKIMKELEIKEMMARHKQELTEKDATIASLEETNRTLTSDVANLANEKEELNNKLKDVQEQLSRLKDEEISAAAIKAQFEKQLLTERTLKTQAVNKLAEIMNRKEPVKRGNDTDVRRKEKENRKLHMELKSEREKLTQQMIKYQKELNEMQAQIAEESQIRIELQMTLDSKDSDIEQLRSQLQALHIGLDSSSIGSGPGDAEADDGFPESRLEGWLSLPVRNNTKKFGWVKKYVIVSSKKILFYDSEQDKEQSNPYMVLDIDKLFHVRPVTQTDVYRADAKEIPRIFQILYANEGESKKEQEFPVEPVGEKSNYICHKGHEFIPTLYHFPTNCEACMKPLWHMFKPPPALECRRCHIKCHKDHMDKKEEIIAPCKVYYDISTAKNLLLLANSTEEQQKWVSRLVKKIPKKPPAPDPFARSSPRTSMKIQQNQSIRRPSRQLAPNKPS
Sequence of G protein-coupled receptor kinase 6 (P43250 whole entry): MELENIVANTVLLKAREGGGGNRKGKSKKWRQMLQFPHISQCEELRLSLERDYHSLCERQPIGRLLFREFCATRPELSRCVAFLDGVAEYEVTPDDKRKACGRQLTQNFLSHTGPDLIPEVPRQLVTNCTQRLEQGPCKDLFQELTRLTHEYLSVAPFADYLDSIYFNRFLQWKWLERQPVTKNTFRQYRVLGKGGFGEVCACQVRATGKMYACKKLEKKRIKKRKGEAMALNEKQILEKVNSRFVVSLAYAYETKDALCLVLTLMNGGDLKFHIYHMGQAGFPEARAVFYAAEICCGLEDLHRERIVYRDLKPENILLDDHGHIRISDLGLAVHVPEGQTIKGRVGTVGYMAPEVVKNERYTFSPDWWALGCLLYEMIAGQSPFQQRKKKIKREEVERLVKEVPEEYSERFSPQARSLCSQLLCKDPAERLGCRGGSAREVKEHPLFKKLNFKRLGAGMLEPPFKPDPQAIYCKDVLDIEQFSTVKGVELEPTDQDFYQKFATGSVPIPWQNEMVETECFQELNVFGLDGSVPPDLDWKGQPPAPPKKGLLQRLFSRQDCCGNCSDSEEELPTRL
Sequence of CYP3A4 (P08684 whole entry): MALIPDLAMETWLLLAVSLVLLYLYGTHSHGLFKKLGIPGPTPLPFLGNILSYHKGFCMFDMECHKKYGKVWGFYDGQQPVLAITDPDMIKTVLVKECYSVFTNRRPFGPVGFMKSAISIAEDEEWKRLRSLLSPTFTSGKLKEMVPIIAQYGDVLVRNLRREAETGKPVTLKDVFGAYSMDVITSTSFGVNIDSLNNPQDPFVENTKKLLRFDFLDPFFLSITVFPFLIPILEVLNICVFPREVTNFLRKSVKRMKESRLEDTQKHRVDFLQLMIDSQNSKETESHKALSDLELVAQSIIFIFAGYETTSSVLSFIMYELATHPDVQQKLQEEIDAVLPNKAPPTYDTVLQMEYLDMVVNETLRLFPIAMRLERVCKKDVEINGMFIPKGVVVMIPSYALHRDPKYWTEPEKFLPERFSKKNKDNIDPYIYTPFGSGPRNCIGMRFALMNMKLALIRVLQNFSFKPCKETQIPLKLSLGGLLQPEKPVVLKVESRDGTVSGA
Sequence of G protein-coupled receptor kinase 5 (P34947 whole entry): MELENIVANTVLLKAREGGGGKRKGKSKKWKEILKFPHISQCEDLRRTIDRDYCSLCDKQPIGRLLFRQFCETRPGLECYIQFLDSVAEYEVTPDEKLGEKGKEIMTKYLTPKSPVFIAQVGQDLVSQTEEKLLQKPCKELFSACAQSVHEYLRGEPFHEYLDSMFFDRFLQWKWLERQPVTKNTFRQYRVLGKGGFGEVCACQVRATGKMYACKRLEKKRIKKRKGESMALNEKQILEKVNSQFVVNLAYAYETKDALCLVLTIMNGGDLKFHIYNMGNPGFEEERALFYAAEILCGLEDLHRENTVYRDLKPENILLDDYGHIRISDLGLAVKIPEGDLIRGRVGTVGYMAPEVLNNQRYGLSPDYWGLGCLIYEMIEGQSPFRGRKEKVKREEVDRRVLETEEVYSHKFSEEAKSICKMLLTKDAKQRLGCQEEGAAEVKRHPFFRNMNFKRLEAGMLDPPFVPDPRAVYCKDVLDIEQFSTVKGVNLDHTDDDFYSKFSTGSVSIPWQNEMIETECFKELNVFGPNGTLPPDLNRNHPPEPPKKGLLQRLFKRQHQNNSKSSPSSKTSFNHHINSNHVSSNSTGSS
T4 sequence (Q12809 whole entry): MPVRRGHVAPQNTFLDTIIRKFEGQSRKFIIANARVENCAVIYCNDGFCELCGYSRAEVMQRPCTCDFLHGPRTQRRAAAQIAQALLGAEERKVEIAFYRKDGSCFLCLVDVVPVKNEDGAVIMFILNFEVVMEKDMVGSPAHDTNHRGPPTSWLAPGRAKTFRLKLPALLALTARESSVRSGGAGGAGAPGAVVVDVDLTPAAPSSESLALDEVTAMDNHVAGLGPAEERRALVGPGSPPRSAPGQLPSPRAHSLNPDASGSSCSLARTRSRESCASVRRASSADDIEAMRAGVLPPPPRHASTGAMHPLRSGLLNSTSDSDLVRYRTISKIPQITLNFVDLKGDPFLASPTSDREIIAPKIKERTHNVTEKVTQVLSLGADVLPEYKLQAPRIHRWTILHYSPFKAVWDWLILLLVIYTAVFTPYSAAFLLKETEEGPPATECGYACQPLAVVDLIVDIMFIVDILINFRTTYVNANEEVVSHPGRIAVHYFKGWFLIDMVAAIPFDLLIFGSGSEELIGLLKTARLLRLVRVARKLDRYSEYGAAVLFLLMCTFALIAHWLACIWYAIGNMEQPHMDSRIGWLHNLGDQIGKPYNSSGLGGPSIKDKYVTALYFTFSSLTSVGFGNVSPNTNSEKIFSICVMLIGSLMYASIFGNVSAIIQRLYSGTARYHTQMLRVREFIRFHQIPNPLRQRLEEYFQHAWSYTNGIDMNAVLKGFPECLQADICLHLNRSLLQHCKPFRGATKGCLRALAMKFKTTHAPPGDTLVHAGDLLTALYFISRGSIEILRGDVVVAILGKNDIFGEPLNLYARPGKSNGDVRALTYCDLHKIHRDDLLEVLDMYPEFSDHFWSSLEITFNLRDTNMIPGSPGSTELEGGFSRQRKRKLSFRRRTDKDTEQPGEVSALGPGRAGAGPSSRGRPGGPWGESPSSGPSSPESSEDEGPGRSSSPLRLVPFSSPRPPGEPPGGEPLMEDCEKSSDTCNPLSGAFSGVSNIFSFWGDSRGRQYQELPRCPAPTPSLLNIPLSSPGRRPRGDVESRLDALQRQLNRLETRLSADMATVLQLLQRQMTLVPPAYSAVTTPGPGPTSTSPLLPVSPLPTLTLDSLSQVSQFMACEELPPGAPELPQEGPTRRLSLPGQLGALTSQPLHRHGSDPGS

Structure (SMILES) | IC50 [1] [µM] | IC50 [2] [µM] | inhibition at 10 µM (CYP3A4) [%] | IC50 [3] [µM] | IC50 (Rhodopsin kinase GRK7) [µM] | IC50 (Rhodopsin kinase GRK1) [µM] | IC50 [4] [µM] | IC50 [5] [µM] | IC50 [8] [µM] | EC50 [9] [µM] | inhibition at 1 h, 1 µM (hERG (KCNH2) [6]) [%] | inhibition at 1 h, 10 µM (hERG (KCNH2) [7]) [%]
Cn1c(CNc2cccc(C(=O)NCc3ccccc3C(F)(F)F)c2)nnc1-c1ccncc1 | 0.0054 | 1.4 | 44 | 8.1 | 25 | 3.1 | 2.3 | > 30 | > 1 | – | 9 | 31
Cn1c(CNc2cccc(C(=O)NCc3ccccc3)c2)nnc1-c1ccncc1 | – | 0.55 | 26 | > 10 | – | – | – | – | – | 1900 | – | –
CNC(=O)c1cccc(NCc2nc(-c3ccncc3)n[nH]2)c1 | 0.021 | 0.22 | 66 | > 10 | > 30 | > 30 | > 30 | > 30 | – | – | – | –
Cn1c(CNc2cccc(C(=O)NCc3ccc(C(F)(F)F)cc3)c2)nnc1-c1ccncc1 | – | 0.62 | 36 | > 10 | – | – | – | – | – | 930 | – | –
Cn1c(CNc2cccc(C(=O)NCc3cccc(C(F)(F)F)c3)c2)nnc1-c1ccncc1 | – | 0.53 | 44 | > 10 | – | – | – | – | – | 220 | – | –
COc1ccccc1CNC(=O)c1cccc(NCc2nnc(-c3ccncc3)n2C)c1 | – | 1.6 | 60 | > 10 | – | – | – | – | – | – | – | –
O=C(Cc1cccc(NCc2nc(-c3ccncc3)n[nH]2)c1)NCc1ccccc1 | – | 0.48 | 92 | > 10 | – | – | – | – | – | – | – | –
Cn1c(CNc2cccc(C(=O)NCc3ccccc3C(F)(F)F)c2)nnc1-c1ccncn1 | – | 0.72 | 63 | > 10 | – | – | – | – | – | – | – | –
CCCn1c(CNc2cccc(C(=O)NCc3c(F)cccc3F)c2)nnc1-c1ccncn1 | – | 0.19 | 51 | 0.25 | – | – | – | – | – | – | – | –

The next molecules have a lower IC50 [2] than those just listed; values first:

IC50 [1] [µM] | IC50 [2] [µM] | inhibition at 10 µM (CYP3A4) [%] | IC50 [3] [µM] | IC50 (Rhodopsin kinase GRK7) [µM] | IC50 (Rhodopsin kinase GRK1) [µM] | IC50 [4] [µM] | IC50 [5] [µM] | IC50 [8] [µM] | EC50 [9] [µM] | Structure (SMILES) | inhibition at 1 h, 1 µM (hERG (KCNH2) [6]) [%] | inhibition at 1 h, 10 µM (hERG (KCNH2) [7]) [%]
0.0018 | 0.024 | 91 | 6.3 | 8.8 | > 30 | 5.7 | > 30 | – | – | O=C(NCc1ccccc1)c1cccc(NCc2nc(-c3ccncc3)n[nH]2)c1 | – | –
0.0043 | 0.023 | 96 | 4.8 | 18 | > 30 | > 30 | > 30 | – | – | Cc1c(-c2ccncc2)n[nH]c1CNc1cccc(C(=O)NCc2ccccc2)c1 | – | –
0.00065 | 0.049 | 83 | – | 2.4 | 0.27 | 1.5 | > 30 | – | – | O=C(NCc1ccccc1C(F)(F)F)c1cccc(NCc2nnc3n2CCOc2cnccc2-3)c1 | – | –
– | 0.11 | 67 | 5.7 | – | – | – | – | – | 26 | CCCn1c(CNc2cccc(C(=O)NCc3ccccc3)c2)nnc1-c1ccncc1 | – | –
0.0033 | 0.076 | 50 | 2.9 | > 30 | > 30 | – | > 30 | – | – | CCn1c(CNc2cccc(C(=O)NCc3ccccc3)c2)nnc1-c1ccncc1 | – | –
– | 0.074 | 80 | 8.3 | – | – | – | – | – | – | CC(=O)Nc1cc(NCc2nc(-c3ccncc3)n[nH]2)ccc1Cl | – | –
– | 0.018 | 84 | 2.5 | – | – | – | – | – | – | O=C(NCc1ccccc1)c1cccc(NCc2cc(-c3ccncc3)on2)c1 | – | –
– | 0.02 | 95 | 3.2 | – | – | – | – | – | – | COc1cccc(CNC(=O)c2cccc(NCc3nnc(-c4ccncc4)[nH]3)c2)c1 | – | –
